From patent US9428732B2, “Compositions and methods for differentiating pluripotent stem cells into primitive blood cells and uses thereof” (Primorigen Biosciences, Inc., priority 2011, dated 2016)

Experiments:
Type in all cases: cell-based, human
[1] = tested on: pluripotent stem cell differentiation cultures; test: Quantitative gene expression analysis during differentiation (Day 0, 4, 8, 12, 15); conditions: for expression of SCL: FIG. 6M; for expression of FOXF1: FIG. 6E; for expression of FOXC1: FIG. 6F
From the text: RNA from the pluripotent stem cell differentiation cultures was harvested at multiple time points corresponding to stages of development from pluripotent stem cells to hematopoietic lineages during in vitro culture. Cells were lysed using Trizol (Life Technologies, Carlsbad Calif.), and RNA was isolated according to the manufacturer's specifications. A cDNA library was reverse transcribed by the High Capacity RNA-to-cDNA Kit from Applied Biosystems (Life Technologies, Carlsbad, Calif.). PCR products were amplified for 40 cycles using primers designed for the gene of interest.
Gene expression studies were carried out to determine expression of key genes for the major divergences in the pathway from iPS to HSC. Briefly, RNA from the differentiation cultures was harvested at multiple time points (Day 0, 4, 8, 12, 15), corresponding to stages of development during in vitro culture and differentiation of pluripotent stem cells to hematopoietic lineages using Differentiation Medium 1. Cells were lysed using Trizol (Life Technologies, Carlsbad Calif.) and RNA was isolated according to manufacturer's specifications. A cDNA library was reverse transcribed using the RNA-to-cDNA Kit from Applied Biosystems (Life Technologies, Carlscad, Calif.). PCR products were amplified using appropriate primers designed for the genes of interest for 40 cycles.
To understand how RA-signaling inhibition with DEAB may lead to increased output of the most primitive blood cells (phenotypic HSCs: CD45+, CD43+, CD34+, CD38−, CD90+, CD45RA−) from pluripotent stem cells without an increase in the total blood (mature cells and progenitors), we performed quantitative gene expression analyses for key development markers at various time points during the differentiation protocol. As the developmental marker genes we surveyed are not known to be direct targets of RA signaling, we can expect the marker gene expression levels to correlate to the cell numbers in culture.

[2] = tested on: pluripotent stem cell differentiation cultures; test: Beating cardiomyocyte colonies in differentiation cultures; conditions: cultures using DEAB; data not shown
From the text: Within the mesoderm lineage we then quantified the expression of markers of the paraxial (FOXC1) and lateral plate (FOXF1, hematopoietic and cardiac precursor) mesoderm. […] This is likely the result of anterior lateral plate mesoderm formation (precursors of the heart). We saw a dramatic upregulation of the cardiogenic mesoderm marker NKX2.5 in the DMSO control at this time point (FIG. 6G, Day 12 onward).

[3] = tested on: iPS-derived hematopoietic progenitors and phenotypic HSCs; test: Differentiation into lymphocytes on OP9 and OP9delta feeder lines, FACS; conditions: cells generated from iPS cells with DEAB at 10 uM; 14 to 21 days
Protocol: The differentiation cultures were trypsinized at the indicated time points and single-cell suspensions were generated following trypsinization. For the Colony Forming Unit (CFU) assays using methyl cellulose cultures, 25% of the cells were plated in 2 ml of MethoCult H4435 (STEMCELL Technologies, Vancouver, BC) in six-well plates. Alternatively, sorted CD45+, CD43+, CD34+, 7AAD-cells were sorted and plated at 500 cells per 2 ml Methocult media. Cells were incubated for 14 days in a humidified incubator at 37° C. with 5% CO2 and evaluated for colonies by bright-field microscopy (Zeiss (Oberkochen, Germany, www.zeiss.com) Axiovert 200 with a Zeiss Axiocam), Cells were resuspended in PBS supplemented with 2% FBS. For the lymphoid myeloid differentiation assays, either CD45+, CD43+, CD34+, 7AAD-hematopoietic progenitors, or CD45+, CD43+, CD34+, CD38−, CD90+, CD45RA− phenotypic HSCs were plated at 20-40 cells per well onto OP9 and OP9delta feeder lines for B-cell and T-cell differentiation, respectively, as previously described (Nozad Charoudeh H, Tang Y, Cheng M, Cilio C M, Jacobsen S E, Sitnicka E., Identification of an NK/T cell-restricted progenitor in adult bone marrow contributing to bone marrow- and thymic-dependent NK cell, Blood, 2010 Jul. 15; 116(2):183-92. NK cell differentiation as well as myeloid cell differentiation was also detected in this differentiation system. […]

[4] = DEAB vs DMSO, early time points

SMILES: CCN(CC)c1ccc(C=O)cc1 [DEAB, 4-diethylaminobenzaldehyde]
- expression of SCL ([1]; DEAB compared to DMSO, Day 15): increased SCL expression
- expression of SCL ([1]; DEAB vs DMSO, Day 8-12): Increased SCL expression with DMSO compared to DEAB
- expression of FOXF1 ([1]; DEAB vs DMSO, Day 8 onward): comparable
- expression of RUNX1 (definitive hematopoietic cell marker) ([1]; DEAB vs DMSO, Day 12-15, FIG. 6I): increased expression
- expression of cardiogenic lateral plate mesoderm marker NKX2.5 ([1]; DEAB vs DMSO, Day 12 onward, FIG. 6G): reduced expression
- expression of FOXC1 ([1]; DEAB vs DMSO, Days 6-12): significantly reduced
- increase in expression of primitive streak mesoderm marker MIXL1 ([1]; DEAB vs DMSO, FIG. 6C): 20%
- expression of endoderm specific marker SOX17 ([1]; DEAB vs DMSO, FIG. 6D): significantly reduced
- CD31 expression (primitive wave endothelial cells) ([1]; DEAB vs DMSO, FIG. 6L): reduced
- expression of ectoderm and neuroectoderm marker PAX6 ([1]; DEAB vs DMSO, early time point, FIG. 6A): reduced expression
- expression of FOXF1 [1, 4]: elevated levels
- expression of FOXC1 [1, 4]: elevated levels
- expression of mesoderm marker Brachyury ([1]; DEAB vs DMSO, first days of differentiation, FIG. 6B): significantly increased
- expression of PAX6 ([1]; DEAB vs DMSO, later time points, FIG. 6A): later equalized
- expression of FLK1 ([1]; DEAB, Day 4): high levels
- expression of RARa ([1]; DEAB, Day 8, FIG. 6N): reduced levels
- expression of RARb ([1]; DEAB, Day 8, FIG. 6O): reduced levels
- expression of APLNR ([1]; DEAB, Day 12, FIG. 6H): expressed highly
- expression of PDGFRA ([1]; DEAB, Day 12, FIG. 6J): downregulated
- expression of FLK1 ([1]; DEAB, Days 12-15): increased
- expression of RA target CD38 by PCR ([1]; DEAB, FIG. 6P): reduction
- numbers of beating cardiomyocytes colonies [2]: significantly reduced numbers
- ability of generated HSCs to differentiate into lymphoid cells (B, NK, T) [3]: capable of differentiating to each type of tested lymphocyte
